Measured values from patent US8003628B2, “Methods of inhibiting osteoclast activity” (The Trustees of The University of Pennsylvania, priority 1999, dated 2011).

What was measured:
[1] = test system: TRANCE-induced marrow cultures; assay: TRANCE-induced marrow cultures; assay type: cell-based; details: reciprocal dose-dependence of WP9QY and TRANCE
Description: This peptide (5-500 μM) was tested for its effect on osteoclast formation using the co-culture system induced by 1,250H2D3 and PGE2. […] There was a reciprocal dose-dependence of WP9QY and TRANCE. Thus, WP9QY is capable of interfering not only with TNF/TNF receptor (1) interaction but also with RANK Ligand/RANK interaction, thereby decreasing the osteoclastogenic potential of this cytokine.

osteoclast formation = molecular target: osteoclast formation
Description: Cytochemical staining for TRAP is widely used for identifying osteoclasts in vivo and in vitro. Naphthol AS-MX phosphate 5 mg. Sigma, St. Louis, Mo.) is resolved in 0.5 ml of N,N-dimethylformamide (Wako). Thirty milligrams of fast red violet LB salt (Sigma) and 50 ml of 0.1 M sodium acetate buffer (pH 5.0) containing 50 mM sodium tartratet are added to the mixture (the TRAP-staining solution). Cells are fixed with 3.7% (v/v) formaldehyde in Ca^2−- and Mg^2+-free phosphate-buffered saline [PBS(−)] for 10 min. fixed again with ethanol-acetone (50:50, v:v) for 1 min. and incubated with the TRAP-staining solution for 10 min. at room temperature. TRAP-positive osteoclasts appear as red cells. The incubation period longer than 10 min. should be avoided since cells other than osteoclasts become weakly positive with time. After staining, cells are washed with distilled water, and TRAP-positive multinucleated cells having three or more nuclei are counted as osteoclasts under a microscope.

L929 lymphocytes = details: Takasaki et al. 1997; cited from earlier work
[2] = molecular target: TNF-related activation-induced cytokine (TRANCE); assay: cell-based or functional assay

osteoclast formation in the co-culture system induced by 1,25(OH)2D3 and PGE2 (IC50) [2] [µM]	Molecule	effect on TRANCE-induced marrow cultures [1]	IC50 osteoclastogenesis relative to IC50 TNF/TNF receptor (1) interaction (osteoclast formation; 250 μM vs 5 μM) [fold]	effect on osteoclastogenesis (osteoclast formation; co-culture system, peptide 5-500 μM)	IC50 (osteoclast formation; read-out: IC50, inhibition of osteoclastogenesis, co-culture system induced by 1,250H2D3 and PGE2, peptide 5-500 μM) [µM]	antagonism of effects of TNF-binding to TNF-α receptor (1) (L929 lymphocytes)
–	CC(C)C[C@@H]1NC(=O)[C@H](Cc2ccc(O)cc2)NC(=O)[C@H](CCC(N)=O)NC(=O)[C@H](CO)NC(=O)[C@H](Cc2c[nH]c3ccccc23)NC(=O)[C@@H](NC(=O)[C@@H](N)Cc2ccc(O)cc2)CSSC[C@@H](C(=O)N[C@@H](Cc2ccc(O)cc2)C(=O)O)NC1=O [WP9QY]	inhibits TRANCE-induced marrow cultures	50	dose- and time-dependently inhibited	250	efficiently antagonized
250	WP9QY (peptide)	–	–	–	–	–
